Measurements: US7629366B2, “Aminoalcohol derivatives” (Fujisawa Pharmaceutical Co., Ltd., priority 2002, dated 2009)

system: increase in intravesical pressure induced by carbachol in anesthetized dog; test: Effect on the increase in intravesical pressure induced by carbachol in anesthetized dog; format: in vivo; settings: 0.032 mg/kg intravenously, 30 minutes before carbachol (1.8 μg/kg); female Beagle dogs under halothane anesthesia
Protocol: Effect on the increase in intravesical pressure induced by carbachol in anesthetized dog
Female Beagle dogs weighing 8.0-15.0 kg were fasted for 24 hours and maintained under halothane anesthesia. A 12F Foley catheter was lubricated with water soluble jelly, inserted into the urethral orifice and advanced approximately 10 cm until the balloon tip was placed well inside the bladder. The balloon was then inflated with 5 ml of room air and catheter slowly withdrawn just part the first resistance that is felt at the bladder neck. Urine was completely drained out through the catheter, and 30 ml of biological saline was infused. The catheter was connected to pressure transducer, and intravesical pressure (IVP) was continuously recorded. The test compound was administered intravenously at 30 minutes before the administration of carbachol (1.8 μg/kg). Percent inhibition of IVP increase by test compound was calculated by dividing IVPa (IVP increase induced by carbachol after test compound administration) by IVPb (IVP increase induced by carbachol just before test compound administration).

Compared with Cc1c(C(=O)O)ccc(-c2ccc(CCNC[C@H](O)c3cccc(Cl)c3)cc2)c1C.Cl [Test Compound (2), 4′-[2-[[(2R)-2-(3-Chlorophenyl)-2-hydroxyethyl]amino]-ethyl]-2,3-dimethyl-1,1′-biphenyl-4-carboxylic acid hydrochloride], Cc1cc(C(=O)O)ccc1-c1ccc(CCNC[C@H](O)c2cccnc2)cc1.Cl.Cl [Test Compound (3), 4′-[2-[[(2R)-2-Hydroxy-2-(3-pyridyl)ethyl]amino]ethyl]-2-methyl-1,1′-biphenyl-4-carboxylic acid dihydrochloride] is lower in “Percent inhibition of IVP increase” value: 91% for the first, 86% for the second.

Compared with COc1cc(-c2ccc(C[C@@H](C)NC[C@H](O)c3ccccc3)cc2)ccc1C(=O)O.Cl [Test Compound (1), 4′-[(2R)-2-[[(2R)-2-Phenyl-2-hydroxyethyl]amino]-propyl]-3-methoxy-1,1′-biphenyl-4-carboxylic acid hydrochloride], COc1cc(-c2ccc(C[C@@H](C)NC[C@H](O)c3cccnc3)cc2)ccc1C(=O)O.Cl.Cl [Test Compound (4), 4′-[(2R)-2-[[(2R)-2-Hydroxy-2-(3-pyridyl)ethyl]amino]-propyl]-3-methoxy-1,1′-biphenyl-4-carboxylic acid dihydrochloride] is higher in “Percent inhibition of IVP increase” value: 93% for the first, 96% for the second.
